Experimental data as given in patent US9102607B2 (priority 2009, dated 2015).
≈ marks a conversion by molar mass, not a printed value. Where “and” joins values, the source holds several entries; their conditions need not be identical. Equal entries are not always repeated. Where two headings read alike, the source gives them in different places.

Key:
TPA-induced ear oedema = test: Anti-inflammatory activity after a single topical administration in TPA-induced ear oedema; type: in vivo, mouse; settings: for Inhibition vs TPA (%) / Ear oedema Mean / anti-inflammatory effect (in words): single topical application; for Inhibition vs TPA (%): T6 h; for Ear oedema Mean: ear thickness at T6 h; for anti-inflammatory effect compared to BPO 5% (in words): compared to BPO at 5%
Procedure: the aim is to evaluate the anti-inflammatory activity of the peroxides by measuring the thickness of mouse ear after TPA topical application. The anti-inflammatory activity is defined as a inhibition percentage of the TAP-induced ear oedema.
An oedema was induced by a single topical application of 20 μl of TPA dissolved in acetone at 0.01%.
Then a single topical application of tested compounds dissolved in TPA solution.
Ear thickness was measured at T6 h.
Results are expressed in percentages based on the inhibition on the oedema induced by the TPA application.
Benzoyl peroxide (BPo) was tested 2 times as a reference peroxide.

P. acnes CIP53.117 = test: microbe, parasite or virus in culture; type: cell-based, Propionibacterium acnes
[1] = compound 5% in TPA 0.01% solution
[2] = Cutibacterium acnes, CIP53, 72 h
[3] = compound 1% in TPA 0.01% solution
[4] = compound 2.5% in TPA 0.01% solution

| Compound | Inhibition vs TPA (%) (TPA-induced ear oedema; [1]) | Ear oedema Mean (TPA-induced ear oedema; [1]) | MIC (P. acnes CIP53.117; [2]) | anti-inflammatory effect (in words) (TPA-induced ear oedema; 1%, 2.5% and 5%) | anti-inflammatory effect compared to BPO 5% (in words) (TPA-induced ear oedema) | Inhibition vs TPA (%) (TPA-induced ear oedema; [3]) | Ear oedema Mean (TPA-induced ear oedema; [3]) | Inhibition vs TPA (%) (TPA-induced ear oedema; [4]) | Ear oedema Mean (TPA-induced ear oedema; [4]) | anti-inflammatory effect (in words) (TPA-induced ear oedema; at 5%) | MIC (P. acnes CIP53.117) |
| --- | --- | --- | --- | --- | --- | --- | --- | --- | --- | --- | --- |
| O=C(OOC(=O)c1ccccc1)c1ccccc1 [BPO, Benzoyl peroxide, reference compound] | 21.4% and 27.8% | 17.60 and 20.80 | – | – | – | – | – | – | – | – | – |
| CCOC(=O)Oc1ccccc1C(=O)OOC(=O)c1ccccc1 [Example 1, (2-(Ethoxycarbonyloxy)benzoyl)benzoyl peroxide] | 53.5% | 13.40 | 80 µg/mL (≈ 242 µM) | dose-dependent anti-inflammatory effect | significantly superior | 13.9% | 24.80 | 29.9% | 20.20 | – | – |
| CC(C)(C)OC(=O)Oc1ccccc1C(=O)OOC(=O)c1ccccc1 [Example 2, (2-(tert-Butoxycarbonyloxy)benzoyl)benzoyl peroxide] | – | – | 40 µg/mL (≈ 112 µM) | – | – | – | – | – | – | – | – |
| CCOC(=O)Oc1ccccc1C(=O)OOC(=O)c1ccccc1OC(=O)OCC [Example 3, Bis(2-(ethoxycarbonyloxy)benzoyl)peroxide] | 81.1% | 4.80 | 160 µg/mL (≈ 382 µM) | strong dose-dependent anti-inflammatory effect | – | 45.7% | 13.80 | 66.1% | 8.60 | – | – |
| CC(C)OC(=O)Oc1ccccc1C(=O)OOC(=O)c1ccccc1 [Example 5, (2-(Isopropoxycarbonyloxy)benzoyl)benzoyl peroxide] | 72.3% | 6.20 | 40 µg/mL (≈ 116 µM) | – | stronger anti-inflammatory effect | 8.9% | 20.40 | 44.6% | 12.40 | significant anti-inflammatory effect | – |
| CC(C)OC(=O)Oc1ccccc1C(=O)OOC(=O)c1ccccc1OC(=O)OC(C)C [Example 6, Bis(2-(isopropoxycarbonyloxy)benzoyl)peroxide] | 93.8% | 1.40 | 80 µg/mL (≈ 179 µM) | strong dose-dependent anti-inflammatory effect | stronger anti-inflammatory effect | 57.1% | 9.60 | 78.6% | 4.80 | – | – |
| CC(C)(C)C(=O)Oc1ccccc1C(=O)OOC(=O)c1ccccc1 [Example 9, (2-(tert-Butyryloxy)benzoyl)benzoyl peroxide] | – | – | – | – | – | – | – | – | – | – | 320 µg/mL (≈ 935 µM) |
| CC(C)C(=O)Oc1ccccc1C(=O)OOC(=O)c1ccccc1 [Example 10, (2-(Isobutyryloxy)benzoyl)benzoyl peroxide] | – | – | 80 µg/mL (≈ 244 µM) | – | – | – | – | – | – | – | – |
| O=C(CC12CC3CC(CC(C3)C1)C2)Oc1ccccc1C(=O)OOC(=O)c1ccccc1 [Example 12, [2-(2-(Adamantan-1-yl)acetoxy)benzoyl]benzoyl peroxide] | – | – | 320 µg/mL (≈ 736 µM) | – | – | – | – | – | – | – | – |
